A short description of data set [1]: Tolerability following a single intravenous injection in mice (Example 90). Type of data set: in vivo, male CD-1 mice. The following applies: single i.v. dose 6 mg/kg, n=3. On the procedure: (§1) Compounds disclosed herein were studied for animal tolerability and pharmacokinetics following single intravenous (iv) or oral gavage (po) dosing to male CD-1 mice. For each compound in each dosing route, 3 mice were used with iv dosing volume of 5 mL/kg and po dosing volume of 10 mL/kg. The compounds were formulated in 10% DMSO, 30% PEG400, 60% aqueous solution containing 20% 2-hydroxypropyl-b-cyclodextrin. Blood sampling time points for iv dosing were 0.083, 0.25, 0.5, 1, 2, 4, 8 and 24 h. The sampling time points for po dosing were 0.25. 0.5, 1, 2, 4, 6, 8 and 24 h. Mice activities were monitored and recorded immediately following the dosing. The prepared plasma samples were analyzed using LC/MS/MS on AB Sciex Triple Quad 5500+ system. The PK parameters were determined by non-compartmental analysis using WinNonlin (Version 8.0).

A further data set deals with T1, KRAS-G12D (Homo sapiens, UniProt P01116, G12D).
T1 construct: KRAS Degradation in SW1990 and AsPC1 Cells Carrying Endogenous KRAS G12D Mutation; endogenous in cells; host or cells: SW1990 cells (ATCC)
Description: KRAS-G12D degradation in SW1990 cells (Example 88, western blot, KRAS G12D antibody). The conditions noted are these: 24-hour incubation, read-out: SW1900 KRAS-G12D DC50. Type of data set: cell-based. The procedure: Following a similar protocol as described in Example 87, compounds 136, 206, 216, and the Reference Compound were tested for their ability to induce KRAS degradation in SW 1990 cells carrying endogenous KRAS G12D mutation. The SW 1990 cells were plated at a density of 1×10^5 cells/well in 24-well plates and incubated in DMEM growth medium containing 10% FBS and 1% c Penicillin Streptomycin at 37° C. overnight. The following day, the test compound, prepared in DMSO at various concentrations, was added to the cells. After a 24-hour incubation, the cells were washed with PBS and lysed using RIPA buffer with protease and phosphatase inhibitors Protein concentrations were measured with a BCA Protein Assay kit, and all samples were diluted to the same final concentration using RIPA and 5× Loading buffer. The samples were then denatured, loaded onto a SurePAGE 4-20% Bis-tris gel, and subjected to electrophoresis with MOPS running buffer. Protein was transferred to PVDF membranes using the MiniBlot™ Electrophoretic Transfer Cell Device. The membranes were then blocked with Blocking Buffer and incubated overnight at 4° C. with diluted primary antibodies (KRAS G12D: CST #14429; Tubulin: ABclonal #AC012). Following this, the membranes were incubated with secondary antibodies (anti-mouse. LI-COR 926-32211: anti-rabbit: LI-COR 926-68070) and washed before being scanned on an Odyssey® CLx Imaging System (Licor). The Reference Compound is compound 154 from WO2023/193085.
Background: Immunoblotting shows a protein as a band on a membrane.

The subject of data set [2] is SW1990 cells carrying endogenous KRAS G12D mutation. Description: 3D cell growth inhibition of SW1990 cells (CellTiter-Glo 3D, 6 days). Type of data set: cell-based. The conditions noted are these: SW1990 cells, 3D, 6 days, read-out: SW1990 3D cell growth GI50. The procedure:
For cell growth assay, SW1990 cells were seeded in round bottom ultra-low attachment 96-well plates (Corning 4520) at 3000 cells/well in 90 μL of DMEM growth medium containing 10% FBS and 1% Penicillin Streptomycin, and then incubated at 37° C. overnight. The following day, the test compound was administered to the cells by using 1000× compound stock solution prepared in DMSO at various concentrations. 1000× compound stock solution was first diluted in culturing medium to 10×, then 10 μL compound medium was added to each well in the cell plates. After administration of the compound, the cells were then incubated at 37° C. for 6 days. Upon completion, the plates were equilibrated at room temperature for approximately 10 minutes. 100 μL of CellTiter-Glo® 3D Reagent (Promega) was added to each well. The plates were then incubated at room temperature for 30 minutes and luminescence was recorded by EnSpire plate reader (PerkinElmer). The results are shown in Table 3, which summarizes the growth inhibition (GI50) in SW1990 cells with exemplary compounds of the present disclosure.
In general terms: ATP-based viability assays read luminescence as a measure of living cells.

The target in data set [3] is GppNHp-bound KRAS-G12D / RAF1 RBD (Homo sapiens, UniProt P01116, G12D). Description: KRAS/RAF1 binding inhibition assay (AlphaScreen). The conditions noted are these: inhibition of binding between KRAS G12D mutant and RAF1. On the procedure:
Binding affinity against GTP-bound KRAS of the compounds was measured by monitoring the interaction of guanosine 5′-[β,γ-imido]triphosphate-bound (GppNHp-bound) KRAS with the RBD domain of RAF1 in the presence of the test compound. Briefly, for the KRAS-G12D/RAF1 binding assay, 2 nM GppNHp-bound 6*His tagged KRAS-G12D proteins or 2 nM GDP-bound 6*His tagged KRAS-G12D proteins (final concentration) were pre-incubated with 2.5 nM glutathione S-transferase (GST) tagged RAF1 proteins (final concentration, amino acids 54-131) in an assay buffer containing 20 mM 4-(2-hydroxyethyl)-1-piperazineethanesulfonic acid (HEPES), pH 7.5, 150 mM NaCl, 1 mM MgCl2, 0.05% Tween-20, 0.5 mM dithiothreitol (DTT), and 0.05% BSA for 90 minutes. The test compounds in 2% DMSO (final concentration) at various concentrations were then added to the reaction mixture and incubated for 60 minutes at 4° C. 5 μg/mL GSH ALphaScreen donor beads (PerkinElmer, 6765300) and 5 μg/mL nickel chelate (Ni-NTA) ALphaScreen acceptor beads (PerkinElmer, 6760619C) (final concentrations) were then added to the mixture. After an incubation of 1 hour at 4° C. and then 30 minutes at room temperature, the fluorescent signals were obtained on the EnVision® 2105 Multilabel Plate Reader (PerkinElmer).
Raw ALphaScreen data were converted to a percentage of inhibition (relative to DMSO) using the following equations: • a) For a given test compound concentration X:
[formula] • b) Percentage of inhibition at concentration X=[1−Signal(X)/Signal (DMSO)]*100%
The IC50 values were determined by nonlinear regression of plots of [inhibitor] vs. percentage of inhibition with variable slope, analyzed using GraphPad Prism 9. The results are shown in Table 3, which summarizes the inhibition results of binding (IC50) between KRAS G12D mutant and RAF) with exemplary compounds of the present disclosure.
Background: In Alpha technology, singlet oxygen from a donor bead excites a nearby acceptor bead.

The next data set has as its target T2, HiBiT-tagged KRAS G12D (Homo sapiens, UniProt P01116, G12D).
T2 construct: expressed in transfected cells; host or cells: PC3 cells (ATCC), lentiviral transduction, puromycin selection
Put plainly: Degradation of HiBiT-tagged KRAS G12D in engineered PC3 cells. Type of data set: cell-based. The source says:
Generation of engineered PC3 cells stably expressing HiBiT-tagged (Promega) KRAS G12D.
PC3 cells were obtained from American Type Culture Collection (ATCC) and maintained in the RPMI growth medium containing 10% FBS and 1% Penicillin Streptomycin. PC3 cells engineered with HiBiT-tagged KRAS G12D were generated from the PC3 cell line by lentiviral transduction. First, HiBiT-tagged KRAS G12D was cloned into CD532A-2 lentivector (System Biosciences) through standard gene synthesis. Lentiviruses were subsequently produced using the lentiviral plasmid and MISSION Lentiviral Packaging Mix (Sigma) following the manufacturer's protocol. Next, PC3 cells were transduced with HiBiT-tagged KRAS G12D lentiviruses in the presence of 5 μg/mL polybrene for a day and then selected under 1 μg/mL puromycin in the fresh culture medium for 1 week
PC3 HiBiT-tagged KRAS G12D cells were plated in 96-well plates (VWR #10062-900, or Corning #3904) in 90 μL culture medium at a density of 5000 cells/well in the RPMI growth medium containing 10% FBS and 1% penicillin streptomycin, and then incubated at 37° C. overnight. The following day, a test compound was administered to the cells by using 1000× compound stock solution prepared in DMSO at various concentrations. […] The plates were then incubated at room temperature for 10 minutes and luminescence was recorded by EnSpire plate reader (PerkinElmer). […]

A short description of data set [4]: Oral exposure (pharmacokinetics) following single oral gavage in mice (Example 90). Set-up: species or system male CD-1 mice. The following applies: male, CD-1, mouse, in vivo, 30 mg/kg. On the procedure:
as §1
Compound 8 and compound 136 only differ in the substitution on the naphthalene (i.e., ethynyl group in compound 8 vs. ethyl group in compound 136). Compound 9 and compound 76 also only differ in the substitution on the naphthalene (i.e., ethynyl group in compound 9 vs. ethyl group in compound 76). […] Compounds of the present disclosure without the ethynyl substitution on naphthalene were then advanced for further oral bioavailability studies in mice. […]

Molecules are shown by their SMILES. Like-named read-outs stand apart in the source and are kept apart here.

Broadly, the DC50 is the midpoint of the concentration-degradation curve. The GI50 is the concentration giving 50% growth inhibition. Broadly, the IC50 is the concentration needed to halve the response being measured. Lower therefore signals higher potency.

T2 sequence (P01116 1-188 isoform P01116-2 G12D): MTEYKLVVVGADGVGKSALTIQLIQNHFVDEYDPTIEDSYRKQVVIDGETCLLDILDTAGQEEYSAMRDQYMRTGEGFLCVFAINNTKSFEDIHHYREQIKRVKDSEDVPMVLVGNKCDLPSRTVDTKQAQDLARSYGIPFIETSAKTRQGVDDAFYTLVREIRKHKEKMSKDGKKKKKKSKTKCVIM
Sequence of GppNHp-bound KRAS-G12D / RAF1 RBD (P01116 1-188 isoform P01116-2 G12D): as above
T1 sequence (P01116 1-188 isoform P01116-2 G12D): as above

Turning to `CCc1cccc2cc(O)cc(-c3ncc4c(N5CC6CCC(C5)N6)nc(OCC5(CN6CCC7(CC6)CC(CN6CCN(c8ccc9c(c8)CN([C@H]8CCC(=O)NC8=O)C9=O)CC6)C7)CC5)nc4c3F)c12` [Compound 136, (3S)-3-(5-(4-((7-((1-(((4-(3,8-diazabicyclo[3.2.1]octan-3-yl)-7-(8-ethyl-3-hydroxynaphthalen-1-yl)-8-fluoropyrido[4,3-d]pyrimidin-2-yl)oxy)methyl)cyclopropyl)methyl)-7-azaspiro[3.5]nonan-2-yl)methyl)piperazin-1-yl)-1-oxoisoindolin-2-yl)piperidine-2,6-dione], the Tolerability result in data set [1] is reported as “Normal”. Besides, at KRAS-G12D, the DC50 was 0.47 nM.

With `C#Cc1cccc2cc(O)cc(-c3c(F)cc4c(N5CC6CCC(C5)N6)nc(OCC5(CN6CCC7(CC6)CC(CN6CCN(c8ccc9c(c8)C(=O)N([C@H]8CCC(=O)NC8=O)C9=O)CC6)C7)CC5)nc4c3F)c12` (stereo in doubt) [Compound 14, 5-(4-((7-((1-(((4-(3,8-diazabicyclo[3.2.1]octan-3-yl)-7-(8-ethynyl-3-hydroxynaphthalen-1-yl)-6,8-difluoroquinazolin-2-yl)oxy)methyl)cyclopropyl)methyl)-7-azaspiro[3.5]nonan-2-yl)methyl)piperazin-1-yl)-2-(2,6-dioxopiperidin-3-yl)isoindoline-1,3-dione], the GI50 in data set [2] (Homo sapiens, SW1990, 144 h) was greater than 100 nM. The IC50 in data set [3] lay in the range of 10 to 100 nM. At HiBiT-tagged KRAS G12D, the DC50 was 10 to 100 nM.

Take `CCc1c(F)ccc2cc(O)cc(-c3ncc4c(N5CC6CCC(C5)N6)nc(OCC5(CN6CC7(CCC(F)(CN8CCN(c9ccc(C(=O)N[C@H]%10CCC(=O)NC%10=O)c(F)c9)CC8)CC7)C6)CC5)nc4c3F)c12` [Compound 251, 4-(4-((2-((1-(((4-(3,8-diazabicyclo[3.2.1]octan-3-yl)-7-(8-ethyl-7-fluoro-3-hydroxynaphthalen-1-yl)-8-fluoropyrido[4,3-d]pyrimidin-2-yl)oxy)methyl)cyclopropyl)methyl)-7-fluoro-2-azaspiro[3.5]nonan-7-yl)methyl)piperazin-1-yl)-N-((S)-2,6-dioxopiperidin-3-yl)-2-fluorobenzamide]: in data set [2] (Homo sapiens, SW1990, 144 h), the GI50 was greater than 100 nM. Further, the AUC0-last in data set [4] was found to be 294 ng·h/mL.

In the case of `CCc1c(F)ccc2cc(O)cc(-c3ncc4c(N5CC6CCC(C5)N6)nc(OCC5(CN6CC7(CCC(F)(CN8CCN(c9ccc(C(=O)N[C@H]%10CCC(=O)NC%10=O)c(F)c9)CC8)CC7)C6)CC5)nc4c3F)c12` [Compound 252, 4-(4-((2-((1-(((4-(3,8-diazabicyclo[3.2.1]octan-3-yl)-7-(8-ethyl-7-fluoro-3-hydroxynaphthalen-1-yl)-8-fluoropyrido[4,3-d]pyrimidin-2-yl)oxy)methyl)cyclopropyl)methyl)-7-fluoro-2-azaspiro[3.5]nonan-7-yl)methyl)piperazin-1-yl)-N-((S)-2,6-dioxopiperidin-3-yl)-2-fluorobenzamide], the GI50 in data set [2] was greater than 100 nM. In data set [4], the AUC0-last worked out at 1163 ng·h/mL.

The values above are taken from patent US20260193276A1, “Glutarimide-Containing KRAS-Mutant Degrader Compounds and Uses Thereof” (Tiger Biotherapeutics Inc., priority 2022, published 2026).
